According to patent publication US4242354A, “2-(2-Thenolythio)-propionylglycine: method for its preparation and pharmaceutical formulations containing said compound” (Mediolanum Farmaceutici S.r.L., priority 1978, dated 1980):

What was measured:
[1] = system: carbon tetrachloride poisoning; test: Protective activity in the carbon tetrachloride poisoning; type: in vivo, male rats (Sprague-Dawley)
Description: Fifty male rats (Sprague-Dawley, 180-200 grams bodyweight) were used for the investigation, subdivided into 5 groups: one group was given no treatment while the remaining 4 groups were poisoned for 7 consecutive days with CCl4 at the dosage of […] given subcutaneously.

[2] = system: SO2-induced experimental bronchitis; test: Experimental bronchitis in the rat (SO2 inhalation); type: in vivo, male rats, Sprague-Dawley strain; parameters: key to Macroscopic Examination, significance vs. controls (S) / Visualization of the bronchial tract, significance vs. controls (S) / Microscopic Examination, significance vs. controls (S): h.s.: highly significant; details: 50 mg/kg; for Visualization of the bronchial tract score (E, mean ± standard error): control 2.50 ± 0.26; for Microscopic Examination score (E, mean ± standard error): control 2.75 ± 0.16
Description: For the purpose 40 male rats, Sprague-Dawley strain, 320-370 grams, subdivided into 4 groups each consisting of 10 elements were subjected to the following treatments:
Group 1: poisoning treatment (SO2)
For the poisoning-induction the animals were subjected to a constant air flow containing SO2 at a 0.03 percent concentration. The poisoning treatment was given for 15 days subjecting the rats, 2 hours daily, to an inhalation of SO2 for 15-minute periods. […] The animals were killed on the day following the last inhalation.
The lungs were withdrawn together with the trachea, fixed in 10 percent formalin, and subjected to a macroscopic examination, dipped thereafter into the same fixing fluid for 24 hours, and thereafter for one hour in absolute ethanol.
The bronchial tree was thereafter evidenced with alcian blue; moreover, a subsequent staining was made with the Schiff's reagent in order to evidence the muchopolysaccharides.
Each lung was given the following arbitary score:
(1) Macroscopic Examination:
5=large hemorrhagic spots
(2) Visualization of the Bronchial Tree with Alcian Blue:
1=almost uniform staining
3=quite irregular staining.
(3) Bronchopulmonary Alterations at the Microscopic Examination: […]

[3] = Solubility and organoleptic properties; type: physicochemical
[4] = Rogers' nonisothermic method: energies of activation, specific velocities, validity periods; type: physicochemical; details: for stability vs 2-thiopropionylglycine (II): comparison of the two compounds
Description: The stability tests were carried out according to the Rogers' nonisothermic method suitably integrated by the evaluation of physical data, melting point, weight variation, and spectrophotometric assay. For each single compound, the tests were performed on a series of samples, with the weight of 100 milligrams, added for the wet tests with 1 ml of distilled water. […] The sample were kept in a thermostat at increasing temperatures, i.e. from 25° to 80° C. […] The temperature, programmed according to the Rogers' formula, resulted to be 40° C. at the end of the first hour, 50° C. at the end of the second hour, 57° C. at the end of the third hour, 63° C. at the end of the fourth hour, 69° C. at the end of the fifth hour, 73° C. at the end of the sixth hour, 77° C. at the end of the seventh hour and, as already specified, 80° C. at the end of the eighth hour.
The data shown in Table 7 were worked out according to the Rogers' method, drawing up the values of the energies of activation of the decomposition reactions under dry and wet conditions, the specific rate constants as well as the validity period.

[5] = system: citric acid-induced experimental bronchitis; test: Experimental bronchitis due to citric acid in the guinea-pig; type: in vivo, spotted guinea-pigs, Morini strain; parameters: key to Microscopic Examination (Table 12), significance vs. controls (S) / Visualization of the bronchial tract, significance vs. controls (S) / Microscopic Examination (Table 14), significance vs. controls (S): h.s.: highly significant; Microscopic Examination score (Table 12; E, mean ± standard error) / Visualization of the bronchial tract score (E, mean ± standard error) / Microscopic Examination score (Table 14; E, mean ± standard error): scale not given here; details: 50 mg/kg; for Microscopic Examination score (Table 12; E, mean ± standard error): control 4.00 ± 0.25; for Microscopic Examination score (Table 14; E, mean ± standard error): control 3.00 ± 0.00; for Visualization of the bronchial tract score (E, mean ± standard error): control 2.83 ± 0.16
Description: Twenty-four spotted guinea-pigs, Morini strain, bodyweight 450 grams approximately, were used for the investigation, subdivided into 4 groups, each consisting of 6 animals, subjected to the following treatments:
Group 1: poisoning treatment with citric acid
The poisoning was made introducing the experimental animals into tight-sealed plexiglass cages containing a solution of 7.5 percent citric acid for 15 minutes daily, 6 days weekly, for 4 weeks.
The animals were sacrificed on the day after the last application, and the lungs were subjected to the same treatments and to the same assessments performed with the same scores already used in the case of the rat.

dog = test: Chronic toxicity in the dog; type: in vivo; details: dogs
[6] = group 3, aerosol (so in the source)

**Q.** For `CC(SC(=O)c1cccs1)C(=O)NCC(=O)O` (stereo not drawn) [compound (I), 2-(2-thenoylthio)-propionylglycine], which “liver weight increase consequent to CCl4” value ([1]; CCl4 0.5 ml/mg sc, 7 days, drugs intramuscularly, (I) 200 and 300 mg/kg, (II) 300 mg/kg) is on record?
**A.** Its value is “can prevent the liver weight increase”.

**Q.** What about the “efficacy in comparison with 2-mercaptopropionylglycine” value ([1]; equivalent dosage, CCl4 poisoning, rat) of the same compound?
**A.** Its value is “statistically significant efficacy in preventing the liver weight increase as well as in reducing the liver fats levels”.

**Q.** What about the “Macroscopic Examination, significance vs. controls (S)” value ([2]; group 2, aerosol) of the same compound?
**A.** Its value is “h.s”.

**Q.** What about the “Microscopic Examination, significance vs. controls (S)” value ([2]; group 2, aerosol) of the same compound?
**A.** The value was “h.s”.

**Q.** What about the “Visualization of the bronchial tract, significance vs. controls (S)” value (“Visualization … significance vs. controls (S)” below) ([2]; group 2, aerosol) of the same compound?
**A.** The value was “h.s”.

**Q.** What about the “Visualization of the bronchial tract score (E, mean ± standard error)” value (“Visualization … (E, mean ± standard error)” below) ([2]; group 2, aerosol) of the same compound?
**A.** Its value is 0.87 ± 0.29.

**Q.** And the “Microscopic Examination score (E, mean ± standard error)” value ([2]; group 2, aerosol)?
**A.** Its value is 0.87 ± 0.29.

**Q.** What about the “Macroscopic Examination, significance vs. controls (S)” value [2, 6] of the same compound?
**A.** The value was “h.s”.

**Q.** What about the “Microscopic Examination, significance vs. controls (S)” value [2, 6] of the same compound?
**A.** The value was “h.s”.

**Q.** And the “Visualization … significance vs. controls (S)” value [2, 6]?
**A.** Its value is “h.s”.

**Q.** What about the “Visualization … (E, mean ± standard error)” value [2, 6] of the same compound?
**A.** Its value is 0.87 ± 0.29.

**Q.** And the “Microscopic Examination score (E, mean ± standard error)” value [2, 6]?
**A.** Its value is 0.75 ± 0.31.

**Q.** And the “Macroscopic Examination score (E, mean ± standard error)” value ([2]; group 3, aerosol (so in the source), control 4.00 ± 0.26)?
**A.** Its value is 1.12 ± 0.39.

**Q.** And the “Macroscopic Examination, significance vs. controls (S)” value ([2]; group 4, subcutaneous)?
**A.** Its value is “h.s”.

**Q.** What about the “Microscopic Examination, significance vs. controls (S)” value ([2]; group 4, subcutaneous) of the same compound?
**A.** The value was “h.s”.

**Q.** And the “Visualization … significance vs. controls (S)” value ([2]; group 4, subcutaneous)?
**A.** Its value is “h.s”.

**Q.** What about the “Visualization … (E, mean ± standard error)” value ([2]; group 4, subcutaneous) of the same compound?
**A.** Its value is 0.75 ± 0.31.

**Q.** And the “Microscopic Examination score (E, mean ± standard error)” value ([2]; group 4, subcutaneous)?
**A.** Its value is 1.00 ± 0.26.

**Q.** And the “protective action, experimental bronchitis (SO2)” value ([2]; rat)?
**A.** The value was “marked protective action”.

**Q.** What about the odor [3] of the same compound?
**A.** Its odor is “odorless”.

**Q.** What about the taste [3] of the same compound?
**A.** The taste was “practically tasteless”.

**Q.** What about the appearance in water ([3]; 100 milligrams with 1 ml of distilled water) of the same compound?
**A.** The appearance in water was “white suspension”.

**Q.** What about the solubility ([3]; all other inorganic solvents (so in the source)) of the same compound?
**A.** Its solubility is “scarcely soluble”.

**Q.** And the solubility ([3]; chloroform)?
**A.** The solubility was “soluble”.

**Q.** And the solubility ([3]; saturated solution of NaHCO3)?
**A.** Its solubility is “soluble”.

**Q.** And the “stability vs 2-thiopropionylglycine (II)” value ([4]; listed as 2-(2-thenoylthio)-propionyl-glycine (I))?
**A.** Its value is “markedly better stability”.

**Q.** And the “stability vs 2-thiopropionylglycine (II)” value ([4]; listed as 2-(2-thenoylthio)-propionylglycine (I))?
**A.** The value was “markedly more stable than the correspondent 2-thiopropionylglycine (II)”.

**Q.** And the “Energy of activation of the decomposition reaction” value ([4]; dry)?
**A.** The value was 51.38 kJ/mol.

**Q.** And the “Validity period” value ([4]; dry)?
**A.** Its value is “unlimited”.

**Q.** And the “K at 25° (specific rate constant)” value ([4]; dry, 25°)?
**A.** The value was 0 h⁻¹.

**Q.** And the “Energy of activation of the decomposition reaction” value ([4]; wet)?
**A.** The value was 55.52 kJ/mol.

**Q.** And the “Microscopic Examination (Table 12), significance vs. controls (S)” value ([5]; Table 12, group 2, orally)?
**A.** The value was “h.s”.

**Q.** And the “Microscopic Examination score (Table 12; E, mean ± standard error)” value ([5]; Table 12, group 2, orally)?
**A.** The value was 2.00 ± 0.36.

**Q.** And the “Microscopic Examination (Table 12), significance vs. controls (S)” value ([5]; Table 12, group 3, aerosol)?
**A.** Its value is “h.s”.

**Q.** And the “Microscopic Examination score (Table 12; E, mean ± standard error)” value ([5]; Table 12, group 3, aerosol)?
**A.** The value was 2.33 ± 0.49.

**Q.** What about the “Microscopic Examination (Table 12), significance vs. controls (S)” value ([5]; Table 12, group 4, rectally) of the same compound?
**A.** Its value is “h.s”.

**Q.** What about the “Microscopic Examination score (Table 12; E, mean ± standard error)” value ([5]; Table 12, group 4, rectally) of the same compound?
**A.** The value was 1.83 ± 0.40.

**Q.** What about the “Microscopic Examination (Table 14), significance vs. controls (S)” value ([5]; Table 14, group 2, orally) of the same compound?
**A.** The value was “h.s”.

**Q.** What about the “Microscopic Examination score (Table 14; E, mean ± standard error)” value ([5]; Table 14, group 2, orally) of the same compound?
**A.** The value was 0.83 ± 0.30.

**Q.** What about the “Microscopic Examination (Table 14), significance vs. controls (S)” value ([5]; Table 14, group 3, aerosol) of the same compound?
**A.** The value was “h.s”.

**Q.** And the “Microscopic Examination score (Table 14; E, mean ± standard error)” value ([5]; Table 14, group 3, aerosol)?
**A.** Its value is 1.00 ± 0.36.

**Q.** What about the “Microscopic Examination (Table 14), significance vs. controls (S)” value ([5]; Table 14, group 4, rectally) of the same compound?
**A.** The value was “h.s”.

**Q.** And the “Microscopic Examination score (Table 14; E, mean ± standard error)” value ([5]; Table 14, group 4, rectally)?
**A.** The value was 0.66 ± 0.42.

**Q.** What about the “Visualization … significance vs. controls (S)” value ([5]; group 2, orally) of the same compound?
**A.** Its value is “h.s”.

**Q.** What about the “Visualization … (E, mean ± standard error)” value ([5]; group 2, orally) of the same compound?
**A.** The value was 1.16 ± 0.30.

**Q.** And the “Visualization … significance vs. controls (S)” value ([5]; group 3, aerosol)?
**A.** The value was “h.s”.

**Q.** And the “Visualization … (E, mean ± standard error)” value ([5]; group 3, aerosol)?
**A.** Its value is 1.00 ± 0.36.

**Q.** And the “Visualization … significance vs. controls (S)” value ([5]; group 4, rectally)?
**A.** Its value is “h.s”.

**Q.** And the “Visualization … (E, mean ± standard error)” value ([5]; group 4, rectally)?
**A.** The value was 1.00 ± 0.44.

**Q.** And the “protective action, experimental bronchitis (citric acid)” value ([5]; guinea-pig)?
**A.** Its value is “marked protective action”.

**Q.** What about the chronic toxicity results (dog) of the same compound?
**A.** Its chronic toxicity results is “optimal”.
